Results: US10759781B2, “Substituted guanidine derivatives” (UBE INDUSTRIES, LTD., priority 2015, dated 2020)

Tests used:
[1] = in vivo; parameters: species or system SD rats; settings: SD, rat, po, 3 mg/kg
Description: Rat Pharmacokinetic (PK) Study (Concentration of Compound in Plasma after Oral Administration)
Seven to eight week old SD rats (weighing 180 to 250 g) were orally administered with a suspension of the compound in 0.5 W/V % methylcellulose 400 solution. Under anesthesia, the blood was collected from the jugular vein in EDTA tubes at 0.25, 0.5, 1, 2, 4, 6, 8 and 24 hours after the administration of the compound. The blood was centrifuged at 4° C. and 6000 g for 3 minutes to give plasma. Acetonitrile was added to the plasma, and the mixture was stirred with a shaker at 750 rpm for 3 minutes and was deproteinized by centrifugation at 3700 rpm for 2 minutes. Thus, the obtained sample was analyzed by LC/MS under the following conditions.
The concentration of the compound in the plasma at each blood sampling time was determined by an internal standard method, and AUC all (Area Under Curve) was calculated by a trapezoidal method.
The following LC and MS systems were used for measurement.
LC: CBM 30 series manufactured by Shimadzu Corporation
Column: Phenomenex Kinetex C18 (50×2.1 mm, 2.6 μm)
Column temperature: 40° C.
Mobile phase A: 0.1% aqueous formic acid solution, mobile phase B: 0.1% formic acid,
50% acetonitrile/methanol mixture
MS: 3200 manufactured by SCIEX

[2] = system: Human normal glomerular microvascular endothelial cells; type: cell-based; settings: 2 days, 100 nM
Description: The Cytotoxicity Inhibition Test in Human Normal Glomerular Microvascular Endothelial Cells
(§1) Human normal glomerular microvascular endothelial cells were plated at 6000 cells/well in a collagen-coated 96-well culture plate. After one day of culture, the medium at each well was completely removed by aspiration and replaced with 50 μL of the compound solution diluted with the basal medium. The basal medium containing 0.1% DMSO was added to control wells. Following, the plate was incubated in CO2 incubator for 30 minutes. Fifty microliter of 2 mM methylamine diluted with the basal medium was added (final concentration 1 mM) to each negative control well (0% inhibition) as well as the compound-containing well, and 50 μL of the basal medium was added to each positive control well (100% inhibition). The plate was incubated in CO2 incubator for 2 days. Ten microliter of CCK-8 was added to each well and the mixtures were incubated in a plate incubator at 37° C. for approximately 2 hours after stirring with a plate shaker. The absorbance of the mixtures at 450 nm was measured with a multiplate reader. The cytotoxicity inhibition ratio of the compound was calculated from the following equation. Inhibition ratio={[Average absorbance of the compound-containing wells]−[Average absorbance of negative control wells]}/{[Average absorbance of positive control wells]−[Average absorbance of negative control wells]}×100

[3] = target: T1, Rat Plasma VAP-1 (Rattus norvegicus, UniProt O08590); experiment: (Ex vivo) rat plasma VAP-1 inhibition test after oral administration of the compound; type: in vivo; settings: 3 hours after oral administration, SD male rats, read-out: inhibition ratio (plasma VAP-1, ex vivo)
T1 construct: from tissue; host or cells: plasma of SD male rats (7-12 weeks old) after oral dosing
T1 sequence (O08590 28-763 limits assumed): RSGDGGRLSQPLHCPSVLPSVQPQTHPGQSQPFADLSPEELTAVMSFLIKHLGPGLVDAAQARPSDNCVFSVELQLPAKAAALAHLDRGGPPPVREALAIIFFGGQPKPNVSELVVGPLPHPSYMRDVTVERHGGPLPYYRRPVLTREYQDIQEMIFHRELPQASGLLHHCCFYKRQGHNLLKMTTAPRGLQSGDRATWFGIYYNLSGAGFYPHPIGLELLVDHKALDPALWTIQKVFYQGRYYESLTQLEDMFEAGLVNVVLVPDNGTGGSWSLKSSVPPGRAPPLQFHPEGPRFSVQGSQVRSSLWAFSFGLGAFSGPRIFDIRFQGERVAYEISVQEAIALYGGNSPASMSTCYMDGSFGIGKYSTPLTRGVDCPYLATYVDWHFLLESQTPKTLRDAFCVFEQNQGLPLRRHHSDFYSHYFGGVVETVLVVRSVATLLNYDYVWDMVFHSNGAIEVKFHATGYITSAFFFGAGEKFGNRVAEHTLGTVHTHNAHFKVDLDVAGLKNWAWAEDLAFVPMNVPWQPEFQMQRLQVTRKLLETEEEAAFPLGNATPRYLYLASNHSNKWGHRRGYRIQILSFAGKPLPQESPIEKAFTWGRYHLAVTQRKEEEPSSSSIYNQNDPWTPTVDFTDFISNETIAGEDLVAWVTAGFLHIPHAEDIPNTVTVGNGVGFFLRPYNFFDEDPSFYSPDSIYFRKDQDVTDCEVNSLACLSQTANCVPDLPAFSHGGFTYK
Outline: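 Male SD rats, 7–12 weeks, non-fasted, dosed orally at 0.3–10 mg/kg; jugular blood taken predose and 3, 8 and 24 h after dosing. Plasma incubated with 2.5 μM 14C-benzylamine for 3 h at 37 °C; extracted product counted by scintillation. Inhibition expressed relative to each animal's predose plasma activity.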

[4] = system: Human normal hepatic sinusoid-like microvascular endothelial cells; type: cell-based; settings: 2 days, 300 nM
Description: The Cytotoxicity Inhibition Test in Human Normal Hepatic Sinusoid-Like Microvascular Endothelial Cells
as §1, with “hepatic sinusoid-like” for “glomerular”

Compound | AUC [1] [µg·h/mL] | inhibition in vivo at 0.3 mg/kg [3] [%] | cytotoxicity inhibition ratio [2] [%] | cytotoxicity inhibition ratio [4] [%]
CON=C1CN(c2ncc(-c3cccc(COC(=O)NC(=N)N)c3F)cc2F)C1 [Example 36, 2-fluoro-3-{5-fluoro-6-[3-(methoxyimino)azetidin-1-yl]pyridin-3-yl}benzyl carbamimidoylcarbamate] | ≥ 1 | ≥ 50 | ≥ 50 | ≥ 50
[2H]C([2H])([2H])ON=C1CN(c2ncc(-c3cccc(COC(=O)NC(=N)N)c3F)cc2F)C1 [Example 37, 2-fluoro-3-(5-fluoro-6-{3-[(methoxy-d3)imino]azetidin-1-yl}pyridin-3-yl)benzyl carbamimidoylcarbamate] | ≥ 1 | ≥ 50 | ≥ 50 | ≥ 50
N=C(N)NC(=O)OCc1cccc(-c2cnc(N3CC(=NOCCC(O)CO)C3)c(F)c2)c1F (centres unmarked) [Example 95, 3-(6-{3-[(3,4-Dihydroxybutoxy)imino]azetidin-1-yl}-5-fluoropyridin-3-yl)-2-fluorobenzyl carbamimidoylcarbamate] | ≥ 1 | ≥ 50 | ≥ 50 | ≥ 50

Further lines, with some results ahead:

AUC [1] [µg·h/mL] | inhibition in vivo at 0.3 mg/kg [3] [%] | Compound | cytotoxicity inhibition ratio [2] [%] | cytotoxicity inhibition ratio [4] [%]
≥ 1 | ≥ 50 | N=C(N)NC(=O)OCc1cccc(-c2cnc(N3CC(=NOCC(CO)CO)C3)c(F)c2)c1F [Example 96, 2-Fluoro-3-{5-fluoro-6-[3-{[3-hydroxy-2-(hydroxymethyl)propoxy]imino}azetidin-1-yl]pyridin-3-yl}benzyl carbamimidoylcarbamate] | ≥ 50 | ≥ 50
≥ 1 | ≥ 50 | N=C(N)NC(=O)OCc1cccc(-c2cnc(N3CC(=NOCC(F)CO)C3)nc2)c1F (centres unmarked) [Example 102, 2-Fluoro-3-(2-{3-[(2-fluoro-3-hydroxypropoxy)imino]azetidin-1-yl}pyrimidin-5-yl)benzyl carbamimidoylcarbamate] | ≥ 50 | ≥ 50
